Test results reported in US20260217748A1, “IBOGAINE AND N[…] AND METHODS OF USE” (Atai Therapeutics, Inc., priority 2022, published 2026).
≈ marks a conversion by molar mass, not a printed value.

Assays:
[1] = target: SERT (Homo sapiens, UniProt P31645); test: SERT Cellular Functional assay; assay type: cell-based
[2] = Chrom logD; assay type: physicochemical
[3] = Microsome half-life RLM; assay type: in vitro ADME; conditions: rat, liver microsomes
[4] = target: hERG (Homo sapiens, UniProt Q12809); test: hERG Binding assay
Chain of hERG (Q12809 whole entry): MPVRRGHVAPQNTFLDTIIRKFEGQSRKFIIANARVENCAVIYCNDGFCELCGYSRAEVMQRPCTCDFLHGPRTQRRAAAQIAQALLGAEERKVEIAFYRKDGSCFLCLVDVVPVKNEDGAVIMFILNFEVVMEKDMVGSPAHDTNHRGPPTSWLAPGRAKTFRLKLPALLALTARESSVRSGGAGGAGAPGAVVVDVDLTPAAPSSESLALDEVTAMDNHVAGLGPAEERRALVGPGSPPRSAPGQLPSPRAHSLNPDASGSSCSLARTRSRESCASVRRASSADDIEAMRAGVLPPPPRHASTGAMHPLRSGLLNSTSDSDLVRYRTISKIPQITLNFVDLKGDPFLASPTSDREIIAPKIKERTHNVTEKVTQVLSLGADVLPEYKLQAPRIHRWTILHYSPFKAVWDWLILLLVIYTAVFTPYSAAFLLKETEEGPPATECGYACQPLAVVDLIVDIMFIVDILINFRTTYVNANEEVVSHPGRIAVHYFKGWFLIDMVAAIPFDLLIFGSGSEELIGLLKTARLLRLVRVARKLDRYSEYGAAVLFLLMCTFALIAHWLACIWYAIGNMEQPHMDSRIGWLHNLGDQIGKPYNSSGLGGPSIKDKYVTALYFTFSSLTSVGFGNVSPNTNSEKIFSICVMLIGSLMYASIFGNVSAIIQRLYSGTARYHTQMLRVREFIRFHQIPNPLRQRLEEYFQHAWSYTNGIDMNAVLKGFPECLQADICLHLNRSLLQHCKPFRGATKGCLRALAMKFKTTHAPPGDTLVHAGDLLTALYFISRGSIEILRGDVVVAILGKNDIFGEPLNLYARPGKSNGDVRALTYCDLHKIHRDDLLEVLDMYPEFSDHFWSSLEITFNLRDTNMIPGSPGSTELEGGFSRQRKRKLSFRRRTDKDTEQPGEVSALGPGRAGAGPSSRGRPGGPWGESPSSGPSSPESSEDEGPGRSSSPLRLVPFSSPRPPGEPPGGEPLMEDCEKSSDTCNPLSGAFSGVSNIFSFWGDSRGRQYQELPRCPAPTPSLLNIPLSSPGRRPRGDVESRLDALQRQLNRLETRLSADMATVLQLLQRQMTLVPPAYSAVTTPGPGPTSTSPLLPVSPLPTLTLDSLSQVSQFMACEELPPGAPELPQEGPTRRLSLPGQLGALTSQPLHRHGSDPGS

[5] = PBS solubility; assay type: physicochemical; conditions: aqueous buffer

Chain of SERT (P31645 whole entry, species assumed): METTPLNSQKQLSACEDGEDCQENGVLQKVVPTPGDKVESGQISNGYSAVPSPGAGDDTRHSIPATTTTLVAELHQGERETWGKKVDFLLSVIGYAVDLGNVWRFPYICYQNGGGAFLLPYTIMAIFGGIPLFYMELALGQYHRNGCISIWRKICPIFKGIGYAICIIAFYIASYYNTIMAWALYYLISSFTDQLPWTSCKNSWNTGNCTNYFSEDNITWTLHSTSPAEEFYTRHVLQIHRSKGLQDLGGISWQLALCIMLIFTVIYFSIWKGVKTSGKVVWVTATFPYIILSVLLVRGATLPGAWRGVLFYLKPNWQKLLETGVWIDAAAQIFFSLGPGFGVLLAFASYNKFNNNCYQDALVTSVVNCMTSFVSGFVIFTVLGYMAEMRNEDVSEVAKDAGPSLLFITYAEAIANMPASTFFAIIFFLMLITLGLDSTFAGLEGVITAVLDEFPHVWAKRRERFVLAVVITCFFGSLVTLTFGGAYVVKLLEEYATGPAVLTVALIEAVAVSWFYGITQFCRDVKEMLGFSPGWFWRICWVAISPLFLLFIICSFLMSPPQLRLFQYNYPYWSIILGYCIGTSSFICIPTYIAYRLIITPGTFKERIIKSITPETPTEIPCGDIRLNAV

CC[C@H]1CC2C[C@H]3c4[nH]c5ccc(OC(C)OC)cc5c4CC[N@@](C2)C13 (stereo partly drawn) [Compound 3, (6R,7S,9S,11S)-7-ethyl-2-(1-methoxyethoxy)-6,6a,7,8,9,10,12,13-octahydro-5H-6,9-methanopyrido[1′,2′:1,2]azepino[4,5-b]indole]
IC50 [1]: 11.9 µM | chromatographic logD [2]: 4.9 | half-life ([3]; +NADPH): 4 min | half-life ([3]; −NADPH): > 200 min | IC50 [4]: > 10 µM | solubility [5]: 245 µM (≈ 86.9 µg/mL)
